Results: patent publication US8507498B2, “4, 6-disubstituted aminopyrimidine derivatives as inhibitors of protein kinases” (Ingenium Pharmaceuticals GmbH, priority 2007, dated 2013)
“Also recorded” adds a separate entry of the source.

Assays:
[1] = test system: IL6 expression in LPS-induced THP-1 macrophages; assay: In vitro THP-1 assay, IL6 ELISA; assay type: cell-based, human; conditions: 0.5 to 5 μM, 60 min pre-incubation, vs DMSO
Procedure: (§1) THP-1 cells are grown in modified RPMI-1640 medium (ATCC, Cat. No. 30-2001) supplemented with 10% FCS and 1% Pen/Strep. For cytokine inhibition assays, cells are seeded at a density of 5×10^5 cells/ml into 6-well plates in standard growth medium supplemented with 100 ng/ml PMA (Sigma, P1585) to induce differentiation into macrophage-like cells. After 24 hours, the medium is replaced with standard growth medium (without PMA) and the cells are incubated for another 48 hours to complete differentiation. […] Cells are incubated for 60 min with compounds prior to stimulation with 100 ng/ml LPS (Sigma, L2630) for another 4-48 hours. Supernatants are collected and assayed immediately for cytokine expression, e.g. for TNFα, IL-6 and IL-1b using commercially available sandwich ELISA assays (eBioscience, Cat. No 88-7346, 88-7066, 88-7010) or kept frozen at […] until evaluation. Concentrations of TNFα, IL6 and IL1β within the cell culture supernatants are measured by using commercial ELISA Kits (eBioscience) according to the manufacturer's instructions. CDK-inhibitory compounds # 1, 2, 3, 5, 16, 18, 19 and 32 were administered to differentiated THP-1 cells in triplicates as described above (see section 2.). After 60 min of pre-incubation with test or reference compound (SB203580, a p38 inhibitor and BMS345541, an IKK-inhibitor) alone, cells were stimulated with LPS. After incubation for 4-48 h, supernatants were collected and ELISA based determinations of cytokine supernatant concentrations were performed as described in section 3, supra.

[2] = test system: TNFα expression in LPS-induced THP-1 macrophages; assay: In vitro THP-1 assay, TNFα ELISA; assay type: cell-based, human; conditions: 0.5 to 5 μM, 60 min pre-incubation, vs DMSO
Procedure: as §1

IL6 = assay: LPS in vivo assay, serum IL6 ELISA; conditions: LPS mice, 10 or 30 mg/kg single p.o. 30 min prior to LPS, blood 90 min after LPS, vs vehicle
Procedure: (§2) For the LPS induced model of septic shock, mice receive an intraperitoneal (i.p.) injection of 30 μg bacterial Lipopolysaccharide (LPS; L2630 SIGMA) in saline. Said LPS-mediated initiation of the inflammatory signalling cascade results in increasing blood serum concentrations of cytokines such as e.g. TNFα, IL-6 and IL1β. Blood can be taken from these animals at defined time points. Thereafter, serum will be separated and the samples can be stored at −80° C. until cytokine concentrations are measured using commercial ELISA assays. (AL Moreira et al., Braz J Med Biol Res 1997; 30:1199-1207).
(§3) Wildtype mice (strain C3HeB/FeJ) (age, sex and weight matched) were injected with 30 μg LPS (SIGMA) intraperitoneally. 90 minutes after LPS administration these animals were anaesthetized with 0.1 ml/10 g bodyweight Ketamine-Rompun (50/20 mg/ml) and blood for serum preparation was taken via cardiac puncture.
(§4) Pharmacological treatment groups (n=4) of LPS mice received per os (p.o.) injections of CDK-inhibiting compounds or the vehicle (negative control), respectively. In particular, compounds 1, 5, 10, and 84 were administered.
(§5) 10 or 30 mg/kg (compound per bodyweight) of a CDK inhibitor, dissolved in 20% DMSO, 5% Tween 80, 10% Tris 1M pH8, 20% PEG400, 45% PBS was administered as a single p.o. dosage 30 min prior to LPS stimulation. Vehicle control was administered in the same manner.
(§6) 90 minutes (min) after LPS stimulation, blood samples were taken from the mice. Previously, the 90 min time point had been identified as the peak of TNF alpha expression in this animal model by a time course experiment.
(§7) Blood samples (˜500 μl/animal) from the LPS animals were incubated on wet ice for 30 min after cardiac puncture. Afterwards the samples were centrifuged for 15 min at 13.000 rpm. Serum was separated from the clot and stored frozen at −80° C.
(§8) Serum concentrations of TNF alpha and IL6 within the samples were measured by using commercial ELISA Kits (Natutec) according to the manufacturers instructions.

TNFα = assay: LPS in vivo assay, serum TNF alpha ELISA; conditions: LPS mice, 10 or 30 mg/kg single p.o. 30 min prior to LPS, blood 90 min after LPS, vs vehicle
Procedure: as §2, §3, §4, §5, §6, §7, §8

## NS(=O)(=O)Cc1cccc(Nc2cc(-c3ccccc3OCC3CCCO3)ncn2)c1 (stereo not drawn) [Compound 82, (3-{6-[2-(tetrahydro-furan-2-ylmethoxy)-phenyl]-pyrimidin-4-ylamino}-phenyl)-methanesulfonamide]
other
  melting point: 168.4 to 169.4 °C

## CS(=O)(=O)c1cccc(Nc2cc(-c3ccccc3O)ncn2)c1 [Reference Example 49, 2-[6-(3-methanesulfonyl-phenylamino)-pyrimidin-4-yl]-phenol]
other
  melting point: 214 to 216.1 °C

## CCOc1ccccc1-c1cc(Nc2cccc(CS(=O)(=O)NC3CC3)c2)ncn1 [Compound 18, N-Cyclopropyl-C-{3-[6-(2-ethoxy-phenyl)-pyrimidin-4-ylamino]-phenyl}-methanesulfonamide]
[1]
  inhibition of IL6 expression in the supernatant: significant inhibitory effect; also recorded: significant inhibition
[2]
  inhibition of TNFα expression in the supernatant: significant inhibitory effect; also recorded: significant inhibition

## CCCS(=O)(=O)Nc1cc(Nc2cc(-c3cccc([N+](=O)[O-])c3)ncn2)ccc1C
other
  melting point: 202 to 203.5 °C

## COCCOc1ccccc1-c1cc(Nc2cccc(CS(N)(=O)=O)c2)nc(C)n1 [Compound 83, (3-{6-[2-(2-methoxy-ethoxy)-phenyl]-2-methyl-pyrimidin-4-ylamino}-phenyl)-methanesulfonamide]
other
  melting point: 209 to 211.1 °C

## CNS(=O)(=O)Cc1cccc(Nc2cc(-c3ccccc3COC)ncn2)c1 [Compound 80, C-{3-[6-(2-methoxymethyl-phenyl)-pyrimidin-4-ylamino]-phenyl}-N-methyl-methanesulfonamide]
other
  melting point: 171 to 172 °C

## COCCCNS(=O)(=O)Cc1cccc(Nc2cc(-c3ccccc3OC)ncn2)c1 [Compound 33, C-{3-[6-(2-Methoxy-phenyl)-pyrimidin-4-ylamino]-phenyl}-N-(3-methoxy-propyl)-methanesulfonamide]
other
  melting point: 149.2 to 150.8 °C

## COc1cc(F)ccc1-c1cc(Nc2cccc(CS(N)(=O)=O)c2)ncn1 [Compound 3, {3-[6-(4-Fluoro-2-methoxy-phenyl)-pyrimidin-4-ylamino]-phenyl}-methanesulfonamide]
[1]
  inhibition of IL6 expression in the supernatant: significant inhibitory effect; also recorded: significant inhibition
[2]
  inhibition of TNFα expression in the supernatant: significant inhibitory effect; also recorded: significant inhibition

## COc1ccccc1-c1cc(Nc2cccc(CS(=O)(=O)NC3CCCC3)c2)ncn1 [Compound 16, N-Cyclopentyl-C-{3-[6-(2-methoxy-phenyl)-pyrimidin-4-ylamino]-phenyl}-methanesulfonamide]
[1]
  inhibition of IL6 expression in the supernatant: significant inhibitory effect; also recorded: significant inhibition
[2]
  inhibition of TNFα expression in the supernatant: significant inhibitory effect; also recorded: significant inhibition

## CCOc1ccccc1-c1cc(Nc2cccc(CS(=O)(=O)NC(C)(C)C)c2)ncn1 [Compound 19, N-tert-Butyl-C-{3-[6-(2-ethoxy-phenyl)-pyrimidin-4-ylamino]-phenyl}-methanesulfonamide]
[1]
  inhibition of IL6 expression in the supernatant: significant inhibitory effect; also recorded: significant inhibition
[2]
  inhibition of TNFα expression in the supernatant: significant inhibitory effect; also recorded: significant inhibition

## NS(=O)(=O)Cc1cccc(Nc2cc(-c3cccc(C(F)(F)F)c3)ncn2)c1 [Compound 63, {3-[6-(3-Trifluoromethyl-phenyl)-pyrimidin-4-ylamino]-phenyl}-methanesulfonamide]
other
  melting point: 221.5 to 223 °C

## CC(C)Oc1ccccc1-c1cc(Nc2cccc(CS(N)(=O)=O)c2)ncn1 [Compound 5, {3-[6-(2-Isopropoxy-phenyl)-pyrimidin-4-ylamino]-phenyl}-methanesulfonamide]
[1]
  inhibition of IL6 expression in the supernatant: significant inhibition
IL6
  IL6 protein concentration in the blood serum: significant repressive effect
TNFα
  TNFα protein concentration in the blood serum: significant repressive effect

## CS(=O)(=O)Cc1cccc(Nc2cc(-c3ccccc3OCC3CCCO3)ncn2)c1 (stereo not drawn) [Compound 64, (3-methanesulfonylmethyl-phenyl)-{6-[2-(tetrahydro-furan-2-ylmethoxy)-phenyl]-pyrimidin-4-yl}-amine]
other
  melting point: 160 to 162.6 °C

## COCCOc1ccccc1-c1cc(Nc2cccc(CS(C)(=O)=O)c2)ncn1 [Compound 57, (3-Methanesulfonylmethyl-phenyl)-{6-[2-(2-methoxy-ethoxy)-phenyl]-pyrimidin-4-yl}-amine]
other
  melting point: 141 to 142.9 °C

## COc1ccccc1-c1cc(Nc2cccc(CS(N)(=O)=O)c2)nc(N)n1 [Compound 66, {3-[2-amino-6-(2-methoxy-phenyl)-pyrimidin-4-ylamino]-phenyl}-methanesulfonamide]
other
  melting point: 211.7 to 213.1 °C

## NS(=O)(=O)Cc1cccc(Nc2cc(-c3ccccc3OCc3ccccc3)ncn2)c1 [Compound 32, {3-[6-(2-Benzyloxy-phenyl)-pyrimidin-4-ylamino]-phenyl}-methanesulfonamide]
[1]
  inhibition of IL6 expression in the supernatant: significant inhibitory effect; also recorded: significant inhibition
[2]
  inhibition of TNFα expression in the supernatant: significant inhibitory effect; also recorded: significant inhibition

## CCOc1ccccc1-c1cc(Nc2cccc(CS(N)(=O)=O)c2)ncn1 [Compound 1, {3-[6-(2-Ethoxy-phenyl)-pyrimidin-4-ylamino]-phenyl}-methanesulfonamide]
[1]
  inhibition of IL6 expression in the supernatant: significant inhibitory effect; also recorded: significant inhibition
IL6
  IL6 protein concentration in the blood serum: significant repressive effect
[2]
  inhibition of TNFα expression in the supernatant: significant inhibitory effect; also recorded: significant inhibition
TNFα
  TNFα protein concentration in the blood serum: significant repressive effect
other
  melting point: 236.3 to 238.6 °C

## COc1ccccc1-c1cc(Nc2cccc(CS(=O)(=O)CCCN(C)C)c2)ncn1 [Compound 84, [3-(3-Dimethylamino-propane-1-sulfonylmethyl)-phenyl]-[6-(2-methoxy-phenyl)-pyrimidin-4-yl]-amine]
IL6
  IL6 protein concentration in the blood serum: significant repressive effect
TNFα
  TNFα protein concentration in the blood serum: significant repressive effect

## CS(=O)(=O)c1cccc(Nc2cc(-c3ccccc3OCc3ccccc3)ncn2)c1 [Reference Example 51, [6-(2-benzyloxy-phenyl)-pyrimidin-4-yl]-(3-methanesulfonyl-phenyl)-amine]
other
  melting point: 199 to 205 °C

## COc1ccccc1-c1cc(Nc2cccc(CS(=O)(=O)NC(C)C)c2)ncn1 [Compound 10, N-Isopropyl-C-{3-[6-(2-methoxy-phenyl)-pyrimidin-4-ylamino]-phenyl}-methanesulfonamide]
IL6
  IL6 protein concentration in the blood serum: significant repressive effect
TNFα
  TNFα protein concentration in the blood serum: significant repressive effect
